# Test results taken from PMC10108353, “Design and Pharmacological Characterization of α4β1 Integrin Cyclopeptide Agonists: Computational Investigation of Ligand Determinants for Agonism versus Antagonism” (Journal of Medicinal Chemistry, 2023).
# Assays:
# [1] = target: T1, α4β7 integrin (Homo sapiens, UniProt P13612+P26010); test: cell-based; type: cell-based; conditions: for IC50: reduction of cell adhesion, >5000 = inactive compounds (IC50/EC50), read-out: IC50 for antagonists, MAdCAM-1/RPMI8866 α4β7
# T1 construct: RPMI8866 cells expressing α4β7 integrin to the ligand MAdCAM-1; endogenous in cells; host or cells: RPMI8866
# T1 sequence (P13612 34-1032): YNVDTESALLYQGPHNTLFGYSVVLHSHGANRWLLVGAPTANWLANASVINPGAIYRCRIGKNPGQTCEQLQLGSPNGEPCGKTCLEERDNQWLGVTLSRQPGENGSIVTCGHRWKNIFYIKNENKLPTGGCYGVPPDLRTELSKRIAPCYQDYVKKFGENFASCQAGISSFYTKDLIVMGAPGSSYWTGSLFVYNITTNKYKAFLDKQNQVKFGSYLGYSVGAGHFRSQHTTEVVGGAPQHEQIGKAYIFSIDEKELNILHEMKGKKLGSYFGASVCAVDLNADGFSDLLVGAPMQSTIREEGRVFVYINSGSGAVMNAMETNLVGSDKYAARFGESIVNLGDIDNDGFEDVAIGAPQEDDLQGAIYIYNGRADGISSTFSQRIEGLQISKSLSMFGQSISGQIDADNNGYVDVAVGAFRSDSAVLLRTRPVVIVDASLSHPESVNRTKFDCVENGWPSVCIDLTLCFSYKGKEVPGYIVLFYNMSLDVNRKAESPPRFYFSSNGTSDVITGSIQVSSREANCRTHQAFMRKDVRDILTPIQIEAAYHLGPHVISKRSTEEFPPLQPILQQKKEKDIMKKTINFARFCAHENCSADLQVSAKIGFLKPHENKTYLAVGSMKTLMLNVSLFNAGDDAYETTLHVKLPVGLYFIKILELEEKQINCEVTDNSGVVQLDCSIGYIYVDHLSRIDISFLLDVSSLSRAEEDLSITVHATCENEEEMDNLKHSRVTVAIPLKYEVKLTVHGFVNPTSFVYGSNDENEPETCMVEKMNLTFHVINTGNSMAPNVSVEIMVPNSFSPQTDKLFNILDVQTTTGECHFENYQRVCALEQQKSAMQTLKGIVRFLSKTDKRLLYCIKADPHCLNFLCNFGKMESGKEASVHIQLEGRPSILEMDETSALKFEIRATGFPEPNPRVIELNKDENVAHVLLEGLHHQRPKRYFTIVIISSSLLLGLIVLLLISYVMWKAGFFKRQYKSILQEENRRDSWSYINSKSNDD
# T1 sequence (P26010 20-798): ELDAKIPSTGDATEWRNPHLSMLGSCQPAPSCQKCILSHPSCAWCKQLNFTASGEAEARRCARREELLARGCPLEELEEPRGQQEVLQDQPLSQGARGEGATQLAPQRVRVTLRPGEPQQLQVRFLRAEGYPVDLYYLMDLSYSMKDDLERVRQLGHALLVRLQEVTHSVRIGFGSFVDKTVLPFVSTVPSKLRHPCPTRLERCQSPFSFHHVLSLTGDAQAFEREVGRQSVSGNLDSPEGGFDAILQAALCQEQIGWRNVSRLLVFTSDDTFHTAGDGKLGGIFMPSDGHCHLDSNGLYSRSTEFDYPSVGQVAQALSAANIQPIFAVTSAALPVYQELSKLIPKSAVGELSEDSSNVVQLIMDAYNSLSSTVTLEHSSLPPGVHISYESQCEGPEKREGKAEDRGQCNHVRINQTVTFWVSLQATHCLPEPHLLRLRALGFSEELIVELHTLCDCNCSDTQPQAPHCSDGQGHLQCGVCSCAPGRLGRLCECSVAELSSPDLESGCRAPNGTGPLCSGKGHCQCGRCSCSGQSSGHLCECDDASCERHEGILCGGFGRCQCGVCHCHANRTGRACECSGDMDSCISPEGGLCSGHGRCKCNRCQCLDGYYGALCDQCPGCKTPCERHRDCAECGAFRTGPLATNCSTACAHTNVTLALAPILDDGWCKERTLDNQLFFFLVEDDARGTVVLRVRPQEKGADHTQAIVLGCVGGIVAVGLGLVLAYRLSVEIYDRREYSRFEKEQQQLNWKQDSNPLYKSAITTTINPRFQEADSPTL
# Source text: mediated Jurkat cell adhesion to FN.
# [2] = target: αLβ2 integrin (Homo sapiens, UniProt P05107+P20701); test: Competitive solid-phase binding assay, purified αLβ2 / ICAM-1; conditions: read-out: Binding affinity IC50, αLβ2/ICAM-1
# Method: Solid-phase ligand binding assays on purified integrin were conducted as previously described[34] with the following modifications. […] The following day, wells were blocked with TSB buffer (20 mM Tris-HCl, 150 mM NaCl, 1 mM CaCl2, 1 mM MgCl2, 1 mM MnCl2, pH 7.5, 1% BSA) for 1 h at room temperature. Purified α5β1 (10 μg/mL) or αLβ2 (7 μg/mL) was incubated with the new synthesized compounds, at different concentrations (10^–4 to 10^–10 M), in coated wells for 1 h at RT. Then, after three washes with PBST buffer, primary antibody (anti-α5β1, BD Bioscience, 1:100 dilution or anti-αL, Abcam, 1:200 dilution) was added for 1 h at RT. Then antirabbit AlexaFluor488-secondary antibody (ThermoFisher Scientific, 1:400 dilution) was added after three washes with PBST buffer and incubated 1 h at room temperature.
# [3] = target: T2, α4β1 integrin (Homo sapiens, UniProt P05556+P13612); test: Competitive solid-phase binding assay, purified α4β1 / VCAM-1; design: purchased R&D Systems; conditions: read-out: Binding affinity IC50, α4β1/VCAM-1
# Method: (§1) For the evaluation of binding affinity to purified α4β1, αMβ2, and α4β7 integrins, competitive solid-phase ligand binding assays were performed as follows. […] Afterward, each well was washed and blocked for 1 h at RT. Purified integrins (α4β1: 0.5 μg/mL; α4β7: 0.5 μg/mL; αMβ2: 0.5 μg/mL; R&D Systems) were preincubated with serial dilutions of new compounds (10^–4 – 10^–10 M) for 30 min at RT and then plated into coated wells for 1 h at RT. After two washes, primary antibody (for α4β1 and α4β7: rabbit anti-α4, Abcam, 1:100 dilution; for αMβ2: rabbit anti-αM, Abcam, 1:100 dilution) was added and incubated for 1 h at RT. The plate was washed twice and then was incubated with anti-rabbit AlexaFluor488 secondary antibody (1:400 dilution, ThermoFischer Scientific) for 1 h at RT. After washing three times, fluorescence was measured as described in the previous section.
# Target sequence in this assay (P05556 21-728 limits assumed, one chain of several): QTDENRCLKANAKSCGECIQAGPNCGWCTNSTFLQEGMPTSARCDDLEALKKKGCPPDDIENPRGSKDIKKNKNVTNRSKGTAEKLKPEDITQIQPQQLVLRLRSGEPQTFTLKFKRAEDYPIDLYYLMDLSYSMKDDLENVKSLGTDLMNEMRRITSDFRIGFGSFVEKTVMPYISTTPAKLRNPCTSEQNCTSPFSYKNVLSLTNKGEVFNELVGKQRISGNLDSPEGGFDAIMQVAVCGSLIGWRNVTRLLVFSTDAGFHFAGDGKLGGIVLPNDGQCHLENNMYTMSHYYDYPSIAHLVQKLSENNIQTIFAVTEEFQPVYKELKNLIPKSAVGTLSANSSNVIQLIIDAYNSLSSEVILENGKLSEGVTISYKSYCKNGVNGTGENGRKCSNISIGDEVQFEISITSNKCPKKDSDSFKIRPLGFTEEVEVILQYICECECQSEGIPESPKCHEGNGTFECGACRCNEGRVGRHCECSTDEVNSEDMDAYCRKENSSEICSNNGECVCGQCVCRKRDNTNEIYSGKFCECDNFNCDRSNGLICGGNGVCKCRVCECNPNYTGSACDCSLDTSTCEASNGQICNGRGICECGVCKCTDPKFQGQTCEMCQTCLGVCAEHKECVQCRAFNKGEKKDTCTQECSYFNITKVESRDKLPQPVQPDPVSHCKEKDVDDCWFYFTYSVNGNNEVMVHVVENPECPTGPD
# [4] = target: αMβ2 integrin (Homo sapiens, UniProt P05107+P11215); test: Competitive solid-phase binding assay, purified αMβ2 / fibrinogen; design: purchased R&D Systems; conditions: read-out: Binding affinity IC50, αMβ2/Fg
# Method: as §1
# [5] = target: T2, α4β1 integrin; test: Jurkat E6.1 cell adhesion to FN; conditions: for agonist or antagonist behaviour, FN/Jurkat E6.1 α4β1: agonist = adhesion index >1, antagonist = adhesion index <1
# Target sequence in this assay (P05556 21-798, one chain of several): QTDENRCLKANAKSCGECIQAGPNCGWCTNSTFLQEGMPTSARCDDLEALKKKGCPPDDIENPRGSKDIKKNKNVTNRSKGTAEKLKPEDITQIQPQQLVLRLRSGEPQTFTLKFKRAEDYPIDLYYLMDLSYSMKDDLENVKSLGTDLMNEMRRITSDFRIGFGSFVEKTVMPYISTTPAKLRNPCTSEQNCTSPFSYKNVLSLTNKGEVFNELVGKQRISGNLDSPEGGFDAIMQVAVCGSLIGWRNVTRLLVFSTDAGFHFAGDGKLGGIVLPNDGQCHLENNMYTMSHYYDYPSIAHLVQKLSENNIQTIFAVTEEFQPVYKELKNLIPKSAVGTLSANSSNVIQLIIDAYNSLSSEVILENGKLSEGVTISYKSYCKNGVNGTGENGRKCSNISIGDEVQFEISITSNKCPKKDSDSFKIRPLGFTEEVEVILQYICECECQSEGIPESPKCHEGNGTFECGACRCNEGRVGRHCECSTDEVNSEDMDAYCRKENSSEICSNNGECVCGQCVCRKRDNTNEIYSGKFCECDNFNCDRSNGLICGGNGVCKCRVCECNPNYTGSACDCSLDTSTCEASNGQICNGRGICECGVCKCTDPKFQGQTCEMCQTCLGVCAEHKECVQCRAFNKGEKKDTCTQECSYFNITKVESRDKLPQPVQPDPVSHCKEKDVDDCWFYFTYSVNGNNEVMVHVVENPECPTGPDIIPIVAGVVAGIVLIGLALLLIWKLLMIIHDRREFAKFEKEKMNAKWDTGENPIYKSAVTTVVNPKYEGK
# Method: Cells were seeded in 96-well plates coated with the specific natural human recombinant ligands (Table 1) and allowed to adhere in the presence of increasing concentrations (10^–10 to 10^–4 M) of the synthesized CPPs before the determination of the number of adherent cells (as described in Experimental Section).
# For adhesion assays on Jurkat E6.1, RPMI8866, or HL60 cells, black 96-well plates were coated overnight at 4 °C with VCAM-1 or ICAM-1 or MAdCAM-1 (5 μg/mL) or Fg (10 μg/mL). The cells were counted, stained with CellTracker green CMFDA (12.5 μM, 30 min at 37 °C, Life Technologies), and after three washes, were preincubated with increasing concentrations of new CPP (10^–10 to 10^–4 M) or with the vehicle (methanol) for 30 min at 37 °C. Then cells were plated (500 000/well) on coated wells and incubated for 30 min at 37 °C. After three washes, adhered cells were lysed with 0.5% Triton X-100 in PBS (30 min at 4 °C) and fluorescence was measured (Ex485 nm/Em535 nm) in an EnSpire Multimode Plate Reader (PerkinElmer, Waltham, MA). For adhesion assays mediated by α5β1 integrin, 96-well plates were coated by passive adsorption with FN (10 μg/mL) overnight at 4 °C. K562 cells were counted and preincubated with various concentrations of the peptides or with the vehicle (methanol) for 30 min at RT. Afterward, the cells were plated (50 000 cells/well) and incubated at RT for 1 h. The wells were then washed with 1% BSA in PBS (phosphate-buffered saline) to take off nonadherent cells, and 50 μL of hexosaminidase substrate was added; after addition of 100 μL of stopping solution, the plates were read at 405 nm. In both types of adhesion assay, the number of adherent cells was determined by comparison with a standard curve made in the same plate. Experiments were carried out in quadruplicate and repeated at least three times.
# Jurkat E6.1 (expressing α4β1 and αLβ2 integrin), K562 (expressing α5β1 integrin) and HL60 (expressing αMβ2 integrin) cell lines were purchased from ATCC (Rockville, MD, USA); these cells were routinely cultured in RPMI-1640 (Life Technologies) supplemented with glutamine and 10% FBS.
# Cells were grown at 37 °C under 5% CO2 humidified atmosphere.
# αLβ2 integrin, sequence (P20701 26-1170): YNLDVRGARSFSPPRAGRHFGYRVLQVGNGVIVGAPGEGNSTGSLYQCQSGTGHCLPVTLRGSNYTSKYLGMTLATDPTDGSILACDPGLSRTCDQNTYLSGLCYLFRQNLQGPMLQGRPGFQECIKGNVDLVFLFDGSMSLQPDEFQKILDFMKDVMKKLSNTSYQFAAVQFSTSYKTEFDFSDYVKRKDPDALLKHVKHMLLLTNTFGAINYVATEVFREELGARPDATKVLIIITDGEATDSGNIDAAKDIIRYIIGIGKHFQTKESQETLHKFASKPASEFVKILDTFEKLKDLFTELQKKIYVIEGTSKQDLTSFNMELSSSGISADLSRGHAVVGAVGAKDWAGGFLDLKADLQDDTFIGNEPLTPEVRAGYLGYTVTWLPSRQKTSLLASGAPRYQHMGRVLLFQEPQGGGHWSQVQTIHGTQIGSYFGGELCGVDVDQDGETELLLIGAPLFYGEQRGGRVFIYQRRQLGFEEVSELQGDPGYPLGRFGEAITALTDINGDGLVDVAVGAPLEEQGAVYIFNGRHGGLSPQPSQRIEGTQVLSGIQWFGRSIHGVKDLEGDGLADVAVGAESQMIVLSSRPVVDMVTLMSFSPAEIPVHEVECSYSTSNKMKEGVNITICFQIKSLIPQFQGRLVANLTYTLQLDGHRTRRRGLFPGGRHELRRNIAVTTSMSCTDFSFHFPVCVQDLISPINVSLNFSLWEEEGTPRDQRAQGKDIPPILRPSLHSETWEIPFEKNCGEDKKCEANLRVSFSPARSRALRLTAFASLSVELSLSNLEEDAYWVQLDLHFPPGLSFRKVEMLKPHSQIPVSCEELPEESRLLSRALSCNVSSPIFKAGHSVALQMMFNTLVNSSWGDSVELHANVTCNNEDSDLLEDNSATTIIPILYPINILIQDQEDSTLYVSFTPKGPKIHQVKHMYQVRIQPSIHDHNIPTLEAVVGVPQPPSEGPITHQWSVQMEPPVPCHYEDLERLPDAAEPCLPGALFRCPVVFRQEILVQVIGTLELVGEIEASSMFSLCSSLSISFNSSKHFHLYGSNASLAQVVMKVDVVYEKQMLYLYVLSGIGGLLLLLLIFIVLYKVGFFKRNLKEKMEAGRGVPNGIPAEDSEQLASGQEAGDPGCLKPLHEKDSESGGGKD
# αLβ2 integrin, sequence (P05107 23-769): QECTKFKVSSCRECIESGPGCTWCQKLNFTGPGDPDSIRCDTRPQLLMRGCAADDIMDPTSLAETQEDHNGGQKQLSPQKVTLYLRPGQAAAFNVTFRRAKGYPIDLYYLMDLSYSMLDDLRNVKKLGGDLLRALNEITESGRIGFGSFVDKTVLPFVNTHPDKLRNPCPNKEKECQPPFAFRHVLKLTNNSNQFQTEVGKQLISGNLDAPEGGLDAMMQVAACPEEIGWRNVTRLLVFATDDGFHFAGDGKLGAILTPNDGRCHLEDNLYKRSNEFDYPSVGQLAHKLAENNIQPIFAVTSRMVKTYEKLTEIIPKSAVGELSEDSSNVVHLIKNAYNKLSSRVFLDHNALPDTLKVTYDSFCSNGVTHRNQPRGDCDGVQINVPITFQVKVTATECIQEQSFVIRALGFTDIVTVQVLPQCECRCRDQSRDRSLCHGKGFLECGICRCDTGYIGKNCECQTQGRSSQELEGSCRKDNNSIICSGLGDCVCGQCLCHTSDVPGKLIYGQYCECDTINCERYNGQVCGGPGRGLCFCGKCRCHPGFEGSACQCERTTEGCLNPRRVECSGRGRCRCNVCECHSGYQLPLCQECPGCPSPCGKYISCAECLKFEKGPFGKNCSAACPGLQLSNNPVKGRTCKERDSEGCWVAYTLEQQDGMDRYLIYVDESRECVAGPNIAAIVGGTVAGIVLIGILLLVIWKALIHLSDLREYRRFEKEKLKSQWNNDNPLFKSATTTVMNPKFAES
# αMβ2 integrin, sequence (P05107 23-700 limits assumed, other chains not shown): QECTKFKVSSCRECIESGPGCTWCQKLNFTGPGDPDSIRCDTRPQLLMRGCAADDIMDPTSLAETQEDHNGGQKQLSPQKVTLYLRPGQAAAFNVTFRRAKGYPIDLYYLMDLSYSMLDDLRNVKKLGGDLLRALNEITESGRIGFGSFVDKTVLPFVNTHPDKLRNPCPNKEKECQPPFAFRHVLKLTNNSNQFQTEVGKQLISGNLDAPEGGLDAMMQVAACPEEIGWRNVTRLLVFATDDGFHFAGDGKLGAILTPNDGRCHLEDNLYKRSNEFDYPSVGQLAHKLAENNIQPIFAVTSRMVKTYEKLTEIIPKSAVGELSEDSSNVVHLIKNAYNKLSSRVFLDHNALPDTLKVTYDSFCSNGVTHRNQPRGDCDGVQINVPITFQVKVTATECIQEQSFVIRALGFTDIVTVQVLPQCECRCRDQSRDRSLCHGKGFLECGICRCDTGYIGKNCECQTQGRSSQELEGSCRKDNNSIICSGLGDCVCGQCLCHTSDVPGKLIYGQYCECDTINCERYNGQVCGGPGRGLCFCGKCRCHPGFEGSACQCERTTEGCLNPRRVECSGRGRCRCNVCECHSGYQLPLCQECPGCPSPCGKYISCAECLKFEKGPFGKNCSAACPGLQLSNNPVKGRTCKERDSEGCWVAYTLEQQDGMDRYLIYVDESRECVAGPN
SMILES,"agonist or antagonist behaviour, MAdCAM-1/RPMI8866 α4β7 ([1]; agonist = adhesion index >1, antagonist = adhesion index <1)",IC50 [1],IC50 [2],IC50 [3],IC50 [4],"agonist or antagonist behaviour, FN/Jurkat E6.1 α4β1 [5]","EC50 ([5]; read-out: EC50 for agonists, FN/Jurkat E6.1 α4β1, increase of cell adhesion, mean ± SD, three experiments in quadruplicate)"
Cc1ccccc1NC(=O)N1C(=O)CC1CC(=O)O (stereo not drawn) [1a],inactive,> 5 µM,> 5 µM,0.0101 ± 0.0049 µM,> 5 µM,agonist,0.0156 ± 0.0015 µM
Cc1ccccc1NC(=O)N1C(=O)CC1CC(=O)NCC(=O)O (stereo not drawn) [1b],,> 5 µM,> 5 µM,> 5 µM,> 5 µM,completely ineffective,
